Several values for one entry are separate records, joined by “and”; a condition that tells them apart may be missing. Identical values can stand only once. Like-named read-outs stand apart in the source and are kept apart here.
Key:
[1] = Safety assessment Study 114; type: in vivo, human; conditions: Study 114, N = 20
[2] = Safety assessment Study 106 Part B; conditions: N = 24
[3] = Safety assessment Study 106 Part A; conditions: for TEAEs related to individual study drugs: N = 33
[4] = type: in vivo, human
[5] = type: in vivo, human; remark: listed apart in the source
[6] = test system: P-glycoprotein transporter; conditions: ref data on file, G1 Therapeutics; cited from earlier work
[7] = ref data on file, G1 Therapeutics; cited from earlier work
[8] = test system: cytochrome P450 3A4; conditions: background statement; cited from earlier work
[9] = type: in vivo, human; remark: listed apart in the source
[10] = cited from earlier work
[11] = clinical; conditions: human, plasma
[12] = cited from earlier work; remark: listed apart in the source
[13] = trilaciclib vs trilaciclib alone
[14] = all resolved without intervention
[15] = metformin 1000 mg oral single dose alone, urine, N = 25, geometric mean (CV%)

SMILES: CCC(C)n1ncn(-c2ccc(N3CCN(c4ccc(OCC5COC(Cn6cncn6)(c6ccc(Cl)cc6Cl)O5)cc4)CC3)cc2)c1=O (centres unmarked) [Itraconazole, itraconazole, reference compound]
- TEAEs related to individual study drugs [1]: 2 (10.0) n (%)

SMILES: CO[C@H]1/C=C/O[C@@]2(C)Oc3c(C)c(O)c4c(O)c(c(/C=N/N5CCN(C)CC5)c(O)c4c3C2=O)NC(=O)/C(C)=C\C=C\[C@H](C)[C@H](O)[C@@H](C)[C@@H](O)[C@@H](C)[C@H](OC(C)=O)[C@@H]1C [Rifampin, rifampin, reference compound]
- TEAEs related to individual study drugs [2]: 19 (79.2) n (%)

SMILES: Cc1ncc2n1-c1ccc(Cl)cc1C(c1ccccc1F)=NC2 [Midazolam, midazolam]
- TEAEs related to individual study drugs [3]: 16 (48.5) n (%)
- Vd/F ([4]; human, plasma, oral): 658 L
- AUC(0-inf) ([4]; human, plasma, po, 5 mg): 64.6 ng·h/mL
- AUC(0-t) ([4]; human, plasma, po, 5 mg): 62.1 ng·h/mL
- Cmax ([4]; human, plasma, po, 5 mg): 24.4 ng/mL
- Vd/F ([4]; human, plasma, po, 5 mg): 635 L
- half-life ([4]; human, plasma, po, 5 mg): 341 min
- CL/F ([4]; midazolam 5 mg oral single dose alone, N = 25, geometric mean (CV%)): 77.4 (34.2) L/h
- Tmax ([4]; midazolam 5 mg oral single dose alone, N = 25, median (range)): 0.50 (0.25–1.50) h
- Cmax decrease after multiple IV doses of trilaciclib ([4]; midazolam vs midazolam alone): 16.6%
- geometric mean AUC0–inf higher after coadministration with trilaciclib ([4]; midazolam vs midazolam alone): 4.6%
- geometric mean AUC0–last higher after coadministration with trilaciclib ([4]; midazolam vs midazolam alone): 4.0%

SMILES: CN1CCN(c2ccc(Nc3ncc4cc5n(c4n3)C3(CCCCC3)CNC5=O)nc2)CC1 [Trilaciclib, trilaciclib]
- TEAEs related to individual study drugs [1]: 9 (45.0) n (%)
- Tmax ([5]; human, plasma, intravenous): 30 min
- clearance ([5]; human, plasma, intravenous): 3520 mL/min
- AUC(0-inf) ([5]; human, plasma, iv, 240 mg/m2): 2700 ng·h/mL
- AUC(0-t) ([5]; human, plasma, iv, 240 mg/m2): 2670 ng·h/mL
- Cmax ([5]; human, plasma, iv, 240 mg/m2): 1600 ng/mL
- Tmax ([5]; human, plasma, iv, 240 mg/m2): 25.2 min
- clearance ([5]; human, plasma, iv, 240 mg/m2): 2920 mL/min
- half-life ([5]; human, plasma, iv, 240 mg/m2): 606 min
- geometric mean AUC0–inf decrease with rifampin [5, 13]: 17.3% and 17%
- geometric mean AUC0–last decrease with rifampin [5, 13]: 17.3%
- geometric mean Cmax reduction with rifampin [5, 13]: 19.9%
- substrate of the P-glycoprotein transporter [6]: substrate of the P-glycoprotein transporter
- unbound fraction in plasma [7]: approximately 30%
- subjects reporting TEAEs of thrombophlebitis ([3]; 25 subjects enrolled after adjustment of drug administration): 24%
- TEAEs related to individual study drugs [3]: 33 (100) n (%)
- subjects with Grade 3 TEAEs of neutropenia related to trilaciclib [3, 14]: 5 n
- subjects with Grade 4 TEAEs of neutropenia related to trilaciclib [3, 14]: 1 n
- subjects discontinued because of phlebitis in the arm related to trilaciclib administration ([3]; initial eight subjects (Site 1)): eight
- time-dependent inhibitor of cytochrome P450 3A4 [8]: time-dependent inhibitor of cytochrome P450 3A4
- Tmax ([9]; human, plasma, intravenous): 28.8 min
- AUC(0-inf) ([9]; human, plasma, iv, 200 mg/m2): 3120 ng·h/mL
- AUC(0-t) ([9]; human, plasma, iv, 200 mg/m2): 3070 ng·h/mL
- Cmax ([9]; human, plasma, iv, 200 mg/m2): 1770 ng/mL
- Tmax ([9]; human, plasma, iv, 200 mg/m2): 24 min
- clearance ([9]; human, plasma, iv, 200 mg/m2): 2120 mL/min
- half-life ([9]; human, plasma, iv, 200 mg/m2): 547 min
- geometric mean AUC0–inf decrease with itraconazole [9, 13]: 14.0% and 13.6%
- geometric mean AUC0–last decrease with itraconazole [9, 13]: 13.3%
- geometric mean Cmax decrease with itraconazole [9, 13]: 28.0%
- TEAEs related to individual study drugs [2]: 20 (83.3) n (%)
- clearance [10]: 158 L/h
- mean terminal half-life (t1/2) [10]: approximately 14 h
- parent molecule recovered in the excreta [10]: less than 10%

SMILES: CN(C)C(=N)N=C(N)N [Metformin, metformin]
- TEAEs related to individual study drugs [3]: 7 (21.2) n (%)
- Vd/F ([11]; oral): 556 L
- AUC(0-inf) ([11]; po, 1000 mg): 11900 ng·h/mL
- Cmax ([11]; po, 1000 mg): 1650 ng/mL
- Tmax (metformin 1000 mg oral single dose alone, N = 25, median (range)): 2.50 (1.50–5.00) h
- Ae (total amount of drug excreted in urine) [15]: 342 (25.1) mg
- Fe (percentage of drug excreted in urine) [15]: 34.2 (25.1) %
- geometric mean AUC0–inf higher after coadministration with trilaciclib (metformin vs metformin alone): 64.6%
- geometric mean AUC0–last higher after coadministration with trilaciclib (metformin vs metformin alone): 66.0%
- geometric mean Cmax higher after coadministration with trilaciclib (metformin vs metformin alone): 79.8%
- AUC0–24 as share of AUC0–inf [12]: approximately 95%
